In patent US8980906B2, “Pyridonemorphinan analogs and biological activity on opioid receptors” (Purdue Pharma L.P., priority 2012, dated 2015):

Key:
δ-opioid receptor = δ-opioid receptor (Homo sapiens (Human), UniProt P41143); assay: δ-opioid receptor radioligand dose-displacement binding assay ([3H]-Naltrindole); conditions: binding affinity, [3H]-Naltrindole displacement
Method: δ-Opioid Receptor Binding Assay Procedures: δ-Opioid Receptor Binding Assay Procedures were conducted as follows. Radioligand dose-displacement assays used 0.2 nM [^3H]-Naltrindole (Perkin Elmer, Shelton, Conn.; 33.0 Ci/mmole) with 5 μg membrane protein (Perkin Elmer, Shelton, Conn.) in a final volume of 500 μl binding buffer (5 mM MgCl2, 5% DMSO, 50 mM Trizma base, pH 7.4). Non-specific binding was determined in the presence of 25 μM unlabeled naloxone. All reactions were performed in 96-deep well polypropylene plates for 1 hour at a temperature of about 25° C. Binding reactions were terminated by rapid filtration onto 96-well Unifilter GF/C filter plates (Perkin Elmer, Shelton, Conn.) presoaked in 0.5% polyethylenimine (Sigma). Harvesting was performed using a 96-well tissue harvester (Perkin Elmer, Shelton, Conn.) followed by five filtration washes with 500 μl ice-cold binding buffer. Filter plates were subsequently dried at 50° C. for 1-2 hours. Fifty μl/well scintillation cocktail (Perkin Elmer, Shelton, Conn.) was added and plates were counted in a Packard Top-Count for 1 min/well.

μ-opioid receptor [1] = target: T1, μ-opioid receptor (Homo sapiens (Human), UniProt P35372); assay: μ-opioid receptor radioligand dose-displacement binding assay ([3H]-diprenorphine); conditions: binding affinity, [3H]-diprenorphine displacement; read-out: Ki (nM) Opioid Receptor μ
Method: μ-Opioid Receptor Binding Assay Procedures: Radioligand dose-displacement binding assays for μ-opioid receptors used 0.3 nM [^3H]-diprenorphine (Perkin Elmer, Shelton, Conn.), with […] membrane protein/well in a final volume of 500 μl binding buffer (10 mM MgCl2, 1 mM EDTA, 5% DMSO, 50 mM HEPES, pH 7.4). Reactions were carried out in the absence or presence of increasing concentrations of unlabeled naloxone. All reactions were conducted in 96-deep well polypropylene plates for 2 hours at room temperature. Binding reactions were terminated by rapid filtration onto 96-well Unifilter GF/C filter plates (Perkin Elmer, Shelton, Conn.), presoaked in 0.5% polyethylenimine using a 96-well tissue harvester (Perkin Elmer, Shelton, Conn.) followed by performing three filtration washes with 500 μl of ice-cold binding buffer. Filter plates were subsequently dried at 50° C. for 2-3 hours. BetaScint scintillation cocktail (Perkin Elmer, Shelton, Conn.) was added (50 μl/well), and plates were counted using a Packard Top-Count for 1 min/well. The data were analyzed using the one-site competition curve fitting functions in GraphPad PRISM™ v. 3.0 or higher (San Diego, Calif.), or an in-house function for one-site competition curve-fitting.

κ-opioid receptor [2] = target: T2, κ-opioid receptor (Homo sapiens (Human), UniProt P41145); assay: κ-opioid receptor radioligand dose-displacement binding assay ([3H]-U69,593); conditions: binding affinity, [3H]-U69,593 displacement
Procedure, shortened: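 Competition binding with 0.4 nM [3H]-U69,593 and 15 μg membrane protein from HEK 293 cells expressing recombinant human κ receptor, in 50 mM Tris pH 7.4 with 5% DMSO, 1 h at about 25 °C. Nonspecific binding defined with 10 μM naloxone or U69,593; bound ligand collected by GF/C filtration and scintillation counting.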

μ-opioid receptor [3] = target: T1, μ-opioid receptor; assay: μ-opioid receptor [35S]GTPγS functional assay, HEK-293 or CHO cells; type: biochemical; conditions: for Emax: relative to DAMGO, HEK-293 or CHO cells
κ-opioid receptor [4] = target: T2, κ-opioid receptor; assay: κ-opioid receptor [35S]GTPγS functional assay, HEK-293 or CHO cells; type: biochemical; conditions: for Emax: relative to U69,593, HEK-293 or CHO cells
ORL-1 receptor = ORL-1 receptor (Homo sapiens (Human), UniProt P41146); assay: ORL-1 receptor radioligand binding assay ([3H]-nociceptin); conditions: binding affinity, [3H]-nociceptin displacement
Method: ORL-1 Receptor Binding Assay Procedure: Membranes from recombinant HEK-293 cells expressing the human opioid receptor-like receptor (ORL-1) (Perkin Elmer, Shelton, Conn.) were prepared by lysing cells in ice-cold hypotonic buffer (2.5 mM MgCl2, 50 mM HEPES, pH 7.4) (10 ml/10 cm dish) followed by homogenization with a tissue grinder/Teflon pestle. Membranes were collected by centrifugation at 30,000×g for […] at 4° C. and pellets resuspended in hypotonic buffer to a final concentration of 1-3 mg/ml. Protein concentrations were determined using the BioRad protein assay reagent with bovine serum albumen as standard. Aliquots of the ORL-1 receptor membranes were stored at −80° C.
Radioligand binding assays (screening and dose-displacement) used 0.1 nM [^3H]-nociceptin (Perkin Elmer, Shelton, Conn.; 87.7 Ci/mmole) with 12 μg membrane protein in a final volume of 500 μl binding buffer (10 mM MgCl2, 1 mM EDTA, 5% DMSO, 50 mM HEPES, pH 7.4). Non-specific binding was determined in the presence of […] unlabeled nociceptin (American Peptide Company). All reactions were performed in 96-deep well polypropylene plates for 1 h at room temperature. Binding reactions were terminated by rapid filtration onto 96-well Unifilter GF/C filter plates (Perkin Elmer, Shelton, Conn.) presoaked in 0.5% polyethylenimine (Sigma). Harvesting was performed using a 96-well tissue harvester (Perkin Elmer, Shelton, Conn.) followed by three filtration washes with 500 μl ice-cold binding buffer. Filter plates were subsequently dried at 50° C. for 2-3 hours. Fifty μl/well scintillation cocktail (Perkin Elmer, Shelton, Conn.) was added and plates were counted in a Packard Top-Count for 1 min/well. The data from screening and dose-displacement experiments were analyzed using Microsoft Excel and the curve fitting functions in GraphPad PRISM™, v. 3.0 or higher, respectively, or an in-house function for one-site competition curve-fitting.

Chain of δ-opioid receptor (P41143 whole entry, looked up): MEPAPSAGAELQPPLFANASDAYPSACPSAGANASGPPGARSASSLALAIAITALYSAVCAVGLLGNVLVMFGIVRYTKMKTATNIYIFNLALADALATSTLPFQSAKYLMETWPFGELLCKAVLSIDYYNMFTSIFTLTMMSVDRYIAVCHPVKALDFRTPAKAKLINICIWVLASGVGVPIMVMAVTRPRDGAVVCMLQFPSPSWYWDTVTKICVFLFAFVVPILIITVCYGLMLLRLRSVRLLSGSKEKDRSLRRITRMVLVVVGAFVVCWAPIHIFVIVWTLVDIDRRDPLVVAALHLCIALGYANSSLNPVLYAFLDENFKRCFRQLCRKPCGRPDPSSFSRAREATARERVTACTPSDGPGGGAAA

Structure (SMILES)	Ki (δ-opioid receptor)	Ki (μ-opioid receptor [1])	Ki (κ-opioid receptor [2])	EC50 (μ-opioid receptor [3])	Emax (μ-opioid receptor [3])	EC50 (κ-opioid receptor [4])	Emax (κ-opioid receptor [4])	Ki (ORL-1 receptor)
COC(=O)c1cc2c([nH]c1=O)C[C@]13CCN(CC4CC4)[C@H](Cc4ccc(OC)cc41)[C@@H]3C2 [Compound 3, (6R,6aR,12aS)-methyl 15-(cyclopropylmethyl)-2-methoxy-10-oxo-6,6a,7,10,11,12-hexahydro-5H-6,12a-(epiminoethano)naphtho[2,1-g]quinoline-9-carboxylate]	18.9 ± 7.84 nM	449 ± 171 nM	3.85 ± 1.09 nM	34.9 ± 6.84 nM	15.7 ± 3.48%	39.1 ± 2.6 nM	52.3 ± 1.76%	
NC(=O)CNC(=O)c1cc2c([nH]c1=O)C[C@]13CCN(CC4CC4)[C@H](Cc4ccc(O)cc41)[C@@H]3C2 [Compound 21, (6R,6aR,12aS)—N-(2-amino-2-oxoethyl)-15-(cyclopropylmethyl)-2-hydroxy-10-oxo-6,6a,7,10,11,12-hexahydro-5H-6,12a-(epiminoethano)naphtho[2,1-g]quinoline-9-carboxamide]		0.59 ± 0.15 nM		1.73 ± 0.41 nM	23.7 ± 2.19%	4.19 ± 0.79 nM	41 ± 5.29%	2.04 ± 0.49 nM
C[C@H](NC(=O)c1cc2c([nH]c1=O)C[C@]13CCN(CC4CC4)[C@H](Cc4ccc(O)cc41)[C@@H]3C2)C(N)=O [Compound 22, (6R,6aR,12aS)—N—((S)-1-amino-1-oxopropan-2-yl)-15-(cyclopropylmethyl)-2-hydroxy-10-oxo-6,6a,7,10,11,12-hexahydro-5H-6,12a-(epiminoethano)naphtho[2,1-g]quinoline-9-carboxamide]		0.56 ± 0.11 nM		4.22 ± 1 nM	30 ± 3.21%	9.89 ± 2.4 nM	36.7 ± 2.73%	1.2 ± 0.21 nM
